Measurements as given in patent US9849131B2 (AUTIFONY THERAPEUTICS LIMITED, priority 2009, dated 2017).

Tests used:
hKv3.2 = molecular target: T1, hKv3.2 (Homo sapiens, UniProt Q96PR1); assay: IonWorks Quattro assay, secondary analysis of activation time constant (Tauact); type: cell-based; conditions: for acts as positive or negative modulator of Kv3.1 and/or Kv3.2: classification from effect on Tauact; for effect on the value of Tauact compared to the vehicle control: vehicle DMSO 0.5%
T1 construct: expressed in transfected cells; host or cells: CHO-K1
T1 sequence (Q96PR1 1-638): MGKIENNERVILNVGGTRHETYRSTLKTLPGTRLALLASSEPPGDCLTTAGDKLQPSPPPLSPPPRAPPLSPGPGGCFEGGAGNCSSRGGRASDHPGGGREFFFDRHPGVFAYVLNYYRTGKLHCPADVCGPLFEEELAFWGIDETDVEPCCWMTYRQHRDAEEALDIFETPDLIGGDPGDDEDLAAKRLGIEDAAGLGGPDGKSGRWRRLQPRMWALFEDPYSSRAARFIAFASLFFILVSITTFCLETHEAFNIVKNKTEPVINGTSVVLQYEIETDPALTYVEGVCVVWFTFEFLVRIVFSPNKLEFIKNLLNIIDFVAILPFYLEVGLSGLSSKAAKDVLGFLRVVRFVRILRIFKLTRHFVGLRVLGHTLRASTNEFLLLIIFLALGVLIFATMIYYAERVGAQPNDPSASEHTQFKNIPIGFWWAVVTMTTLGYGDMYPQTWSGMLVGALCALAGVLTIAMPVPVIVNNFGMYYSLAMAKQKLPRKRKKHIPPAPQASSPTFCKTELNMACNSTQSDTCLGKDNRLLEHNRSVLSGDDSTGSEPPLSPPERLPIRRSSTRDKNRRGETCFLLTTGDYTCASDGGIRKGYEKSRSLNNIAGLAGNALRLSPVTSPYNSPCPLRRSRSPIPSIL
Protocol: A stable cell line expressing human Kv3.2 channels (hKv3.2) was created by transfecting Chinese Hamster Ovary (CHO)-K1 cells with a pCIH5-hKv3.2 vector. Cells were cultured in DMEM/F12 medium supplemented by 10% Foetal Bovine Serum, 1× non-essential amino acids (Invitrogen) and 500 ug/ml of Hygromycin-B (Invitrogen). Cells were grown and maintained at 37° C. in a humidified environment containing 5% CO2 in air.
The day of the experiment, cells were removed from the incubator and the culture medium removed. Cells were washed with 5 ml of Dulbecco's PBS (DPBS) calcium and magnesium free and detached by the addition of 3 ml Versene (Invitrogen, Italy) followed by a brief incubation at 37° C. for 5 minutes. The flask was tapped to dislodge cells and 10 ml of DPBS containing calcium and magnesium was added to prepare a cell suspension. The cell suspension was then placed into a 15 ml centrifuge tube and centrifuged for 2 min at 1200 rpm. After centrifugation, the supernatant was removed and the cell pellet re-suspended in 4 ml of DPBS containing calcium and magnesium using a 5 ml pipette to break […] up the pellet. Cell suspension volume was then corrected to give a cell concentration for the assay of approximately 3 million cells per ml.
Experiments were conducted at room temperature using IonWorks Quattro™ planar array electrophysiology technology (Molecular Devices Corp.) with PatchPlate™ PPC. Stimulation protocols and data acquisition were carried out using a microcomputer (Dell Pentium 4). Planar electrode hole resistances (Rp) were determined by applying a 10 mV voltage step across each well. These measurements were performed before cell addition. […] Following this, amphotericin-B solution was added to the intracellular face of the electrode to achieve intracellular access. Cells were held at −70 mV. Leak subtraction was conducted in all experiments by applying 50 ms hyperpolarizing (10 mV) prepulses to evoke leak currents followed by a 20 ms period at the holding potential before test pulses. From the holding potential of −70 mV, a first test pulse to −15 mV was applied for 100 ms and following a further 100 ms at −70 mV, a second pulse to 40 mV was applied for 50 ms. Cells were then maintained for a further 100 ms at −100 mV and then a voltage ramp from −100 mV to 40 mV was applied over 200 ms. In all experiments, the test pulses protocol was performed in the absence (pre-read) and presence (post-read) of the test compound. Pre- and post-reads were separated by the compound addition followed by a 3 minute incubation.
The magnitude of the effect of a compound can be determined from the time constant (Tauact) obtained from a non-linear fit, using the equation given below, of the rise in Kv3.1 or Kv3.2 currents following the start of the depolarising voltage pulse. Y=(Y0−Ymax)*exp(−K*X)+Ymax
Where: • Y0 is the current value at the start of the depolarising voltage pulse; • Ymax is the plateau current;
K is the rate constant, and Tauact is the activation time constant, which is the reciprocal of K.

Male CD-1 mice = assay: Psychostimulant (amphetamine)-induced hyperactivity in mice (Example 93); conditions: mouse
[1] = system: fast-firing interneurons in the somatosensory cortex; assay: Recordings from fast-firing interneurons driven by high frequency current pulse trains (FIG. 2); type: cell-based, mouse; conditions: 1 microM; trains of depolarising current pulses at 100, 200, 300 Hz; n=6
From the text: Kv3.1 and Kv3.2 channels must activate and deactivate very rapidly in order to allow neurons to fire actions potentials at high frequency (Rudy and McBain, 2001, Trends in Neurosciences 24, 517-526). Slowing of activation will delay the onset of action potential repolarisation; slowing of deactivation will lead to hyperpolarising currents that reduce the excitability of the neuron and delay the time before the neuron can fire a further action potential. Together these two slowing effects will lead to a reduction rather than a facilitation of the neurons ability to fire at high frequencies. […] This latter effect can be observed from recordings made from “fast-firing” interneurons in the cortex of rat brain, using electrophysiological techniques, in vitro (FIG. 2).
The neurons are induced to fire at high frequencies by trains of high frequency depolarising current pulses at 100, 200, and 300 Hz. The ability of the neuron to fire an action potential on each pulse is determined. […] In the absence of drug (closed circles, n=9), the neurons maintained a spike probability of 1 up to 300 Hz.

[2] = system: parvalbumin-positive interneurons in the somatosensory cortex; assay: Firing of parvalbumin-positive interneurons in somatosensory cortex slices, in vitro (Example 90); type: cell-based, mouse; conditions: TEA 0.5 mM vs control slices; at least 1 hour incubation
[3] = system: high voltage-activated potassium currents in MNTB neurons (presumed to be mediated by Kv3.1 channels); assay: Potassium currents recorded from MNTB neurons, in vitro (Example 91); type: cell-based, mouse; conditions: TEA 1 mM; voltage steps to +40 mV
Protocol: Male CBA/Ca mice (aged 12-16 days) were used in these experiments (in accordance with the UK Animals Scientific Procedures Act, 1986). Brain slices containing the medial nucleus of the trapezoid body (MNTB) were prepared as described previously (Brew and Forsythe, 2005).
Chemicals and reagents were purchased from Sigma, (Poole, UK) unless otherwise noted. EXAMPLE 19 was dissolved in DMSO and diluted in ACSF to the required concentration.
Recordings from identified MNTB neurons were conducted as previously described (Brew and Forsythe, 2005). Slices was placed in a superfusion chamber on an inverted microscope stage and continuously perfused with gassed (95% O2-5% CO2) ACSF at a rate of 1 ml min^−1 at room temperature. Whole-cell recordings were made from visually identified MNTB neurons using an […] amplifier (Molecular Devices, Union City, Calif., USA). Patch solution comprised (in mM) potassium gluconate (97.5), KCl (32.5), Hepes (40), EGTA (5), MgCl2 (1), Na2 phosphocreatin (5), pH 7.2 with KOH. Pipettes had resistances of 3-5 MΩ and series resistances were 6-10 MΩ (compensated by 70%, 10 μs lag). Access resistance was frequently monitored and the recording discarded if increases were more than 2 MΩ. […]

SMILES | acts as positive or negative modulator of Kv3.1 and/or Kv3.2 (hKv3.2) | further results
CC[C@@]1(C)NC(=O)N(c2ccc(Oc3ccc(C)c(OC)c3)nc2)C1=O [Example 30, (5R)-5-ethyl-5-methyl-3-(6-{[4-methyl-3-(methyloxy)phenyl]oxy}-3-pyridinyl)-2,4-imidazolidinedione] | positive modulators | –
CC1(C)NC(=O)N(c2ccc(Oc3cccc4c3C3(CC3)CO4)nc2)C1=O [Example 88, 5,5-dimethyl-3-[6-(spiro[1-benzofuran-3,1′-cyclopropan]-4-yloxy)-3-pyridinyl]-2,4-imidazolidinedione] | negative modulators | effect on the value of Tauact compared to the vehicle control (hKv3.2; hKv3.2): markedly increase
CC[C@H]1NC(=O)N(c2ccc(Oc3ccc(C#N)c(OC(F)(F)F)c3)nc2)C1=O [Example 82, 4-({5-[(4R)-4-ethyl-2,5-dioxo-1-imidazolidinyl]-2-pyridinyl}oxy)-2-[(trifluoromethyl)oxy]benzonitrile] | positive modulators | –
CC[C@H]1NC(=O)N(c2ccc(Oc3ccc(C#N)cc3C3CC3)nc2)C1=O [Example 70, 3-cyclopropyl-4-({5-[(4R)-4-ethyl-2,5-dioxo-1-imidazolidinyl]-2-pyridinyl}oxy)benzonitrile] | positive modulators | –
CC[C@H]1NC(=O)N(c2ccc(Oc3ccc(C#N)c(C(C)C)c3)nc2)C1=O [Example 77, 4-({5-[(4R)-4-ethyl-2,5-dioxo-1-imidazolidinyl]-2-pyridinyl}oxy)-2-(1-methylethyl)benzonitrile] | positive modulators | –
CC[C@H]1NC(=O)N(c2ccc(Oc3ccc(C#N)cc3C(C)(C)C)nc2)C1=O [Example 71, 3-(1,1-dimethylethyl)-4-({5-[(4R)-4-ethyl-2,5-dioxo-1-imidazolidinyl]-2-pyridinyl}oxy)benzonitrile] | negative modulators | effect on the value of Tauact compared to the vehicle control (hKv3.2; hKv3.2): markedly increase
CC[C@H]1NC(=O)N(c2ccc(Oc3ccc(C#N)c(OC(C)C)c3)nc2)C1=O [Example 80, 4-({5-[(4R)-4-ethyl-2,5-dioxo-1-imidazolidinyl]-2-pyridinyl}oxy)-2-[(1-methylethyl)oxy]benzonitrile] | positive modulators | –
CC(N)Cc1ccccc1 (stereo not shown) [Amphetamine, amphetamine, reference compound] | – | Total Distance Travelled (cm) (Male CD-1 mice; amphetamine 2.0 mg/kg i.p. alone, 60 minutes, mean ± sem): 16304 ± 3309 cm; effect on total distance travelled (Male CD-1 mice; amphetamine alone 2 mg/kg i.p.): large and significant increase
CCc1cc(Oc2ccc(N3C(=O)N[C@H](CC)C3=O)cn2)ccc1C#N [Example 78] | positive modulators | –
CC[C@H]1NC(=O)N(c2ccc(Oc3cccc4c3C3(CC3)CO4)nc2)C1=O [Example 87, (5R)-5-ethyl-3-[6-(spiro[1-benzofuran-3,1′-cyclopropan]-4-yloxy)-3-pyridinyl]-2,4-imidazolidinedione] | negative modulators | effect on the value of Tauact compared to the vehicle control (hKv3.2; hKv3.2): markedly increase; ability of neurons to fire an action potential on each pulse (spike probability) [1]: unable to follow trains at the highest frequency
CC[N+](CC)(CC)CC [TEA, tetraethylammonium, reference compound] | – | maximal frequency of action potential firing in response to step currents [2]: lower maximal frequency; amplitude of outward high voltage-activated potassium currents [3]: significantly reduced
CC[C@H]1NC(=O)N(c2ccc(Oc3ccc(C#N)c(C4CC4)c3)nc2)C1=O [Example 76, 2-cyclopropyl-4-({5-[(4R)-4-ethyl-2,5-dioxo-1-imidazolidinyl]-2-pyridinyl}oxy)benzonitrile] | positive modulators | Tauact mean (hKv3.2; hKv3.2, step to −15 mV, compound 3.1 μM (concentration giving ~0.3 nA current)): 7.6 ms
